The numbers were not newly measured in patent US20230003743A1, “METHODS AND COMPOSITIONS FOR TREATING OR PREVENTING AN ALLERGY OR ANAPHYLAXIS” (THE CHILDREN'S MEDICAL CENTER CORPORATION, priority 2020, published 2023), which cites them from elsewhere.

This data set deals with humanized mouse model of FA. Particulars: SCID mice engrafted with human CD34+ hematopoietic stem cells, peanut-sensitized, enterally challenged with PN.

Omalizumab: the “anaphylactic response (hypothermia, increases in plasma tryptase levels) upon enteral peanut challenge” value is on record as “ablates this anaphylactic response”.
